Experiments:
CX3CR1 [1] = target: T1, CX3CR1 (Homo sapiens, UniProt P49238); assay: 125I-CX3CL1 kinetic radioligand binding, CHO-hCX3CR1 membranes; set-up: host or cells: CHO-K1
T1 sequence (P49238 1-355): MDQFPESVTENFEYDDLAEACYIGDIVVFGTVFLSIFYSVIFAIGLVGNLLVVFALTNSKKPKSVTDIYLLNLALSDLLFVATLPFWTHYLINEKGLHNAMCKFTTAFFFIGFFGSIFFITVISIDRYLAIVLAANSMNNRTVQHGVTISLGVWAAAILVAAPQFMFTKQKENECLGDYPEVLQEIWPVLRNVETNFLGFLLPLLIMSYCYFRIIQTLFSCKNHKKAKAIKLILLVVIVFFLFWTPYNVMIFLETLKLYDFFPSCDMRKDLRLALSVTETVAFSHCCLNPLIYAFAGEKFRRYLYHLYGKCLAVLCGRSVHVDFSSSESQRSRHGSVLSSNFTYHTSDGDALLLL
Description: Incubation times ranged from 2.5 min to 4 h. For the association experiments, the radioligand data were fitted to the following monophasic exponential association equation and the association rate (kon) was calculated using the added amounts of radioligand (L) and dissociation rate (koff) as constants. koff was measured in separate dissociation experiments. The dissociation data were fitted to the monophasic exponential decay equation: where Y0 is the binding (cpm) at time zero, X is the time and NS is the (non-specific) binding at infinite times. […] Multiple compound dissociation data were fitted to the biphasic exponential decay equation: […]

CX3CR1 [2] = test system: CX3CR1; set-up: method as in PMID 24706865; details: cited from earlier work
[3] = in presence of 10 μM AZD8797 + 100 nM CX3CL1, two-phase model, n=3

CC(C)C[C@H](CO)Nc1nc(S[C@@H](C)c2ccccc2)nc2nc(N)sc12 [AZD8797]
k1off of 125I-CX3CL1 dissociation (fast first phase) (CX3CR1 [1]; [3]): 0.45 min⁻¹
k2off of 125I-CX3CL1 dissociation (second slower phase) (CX3CR1 [1]; [3]): 0.0060 min⁻¹
Effect on 125I-CX3CL1 association rate (kon) (CX3CR1 [1]; results not shown): no effect
Effect on maximal binding of 125I-CX3CL1 in association experiments (CX3CR1 [1]; results not shown): decreased
Efficacy in rat model for multiple sclerosis (CX3CR1 [2]): efficacy

From publication PMC4764977, “AZD8797 is an allosteric non-competitive modulator of the human CX3CR1 receptor” (Biochemical Journal, 2016)
